The CheMixHub viscosity set

Test: xn = mol fraction of the nth substance listed

N#C[S-].[Na+] + CO
viscosity [mPa·s], 101.3 kPa
Conditions	293.15 K	298.15 K	303.15 K	308.15 K	313.15 K	318.15 K	323.15 K
x1 = 0.003649	0.656	0.608	0.563	0.526	0.491	0.46	0.432
x1 = 0.01456	0.819	0.753	0.695	0.643	0.597	0.556	0.518
x1 = 0.03159	0.947	0.871	0.803	0.743	0.689	0.646	0.602
x1 = 0.0463	1.117	1.027	0.947	0.873	0.811	0.753	0.703
x1 = 0.05341	1.197	1.101	1.011	0.932	0.861	0.798	0.742
x1 = 0.07204	1.409	1.286	1.176	1.086	1.011	0.923	0.859
x1 = 0.08868	1.716	1.552	1.416	1.293	1.186	1.092	1.009
x1 = 0.09954	1.915	1.711	1.514	1.38	1.261	1.16	1.068
x1 = 0.1138	2.253	1.996	1.793	1.624	1.477	1.353	1.239
x1 = 0.1229	2.36	2.109	1.904	1.732	1.565	1.426	1.304
x1 = 0.1415	2.922	2.58	2.295	2.055	1.854	1.683	1.535

COCCO + COC(=O)OC
298.15 K, 101.33 kPa
Conditions	viscosity [mPa·s]
x1 = 0.0114	0.593
x1 = 0.0258	0.594
x1 = 0.0442	0.598
x1 = 0.0637	0.6
x1 = 0.0769	0.603
x1 = 0.0975	0.608
x1 = 0.1462	0.624
x1 = 0.2295	0.658
x1 = 0.2503	0.669
x1 = 0.2778	0.681
x1 = 0.3223	0.704
x1 = 0.34	0.713
x1 = 0.4034	0.758
x1 = 0.4719	0.81
x1 = 0.5173	0.848
x1 = 0.5482	0.874
x1 = 0.5889	0.91
x1 = 0.6404	0.96
x1 = 0.7382	1.075
x1 = 0.814	1.12
x1 = 0.8597	1.252
x1 = 0.89	1.305
x1 = 0.9189	1.355
x1 = 0.9738	1.471
x2 = 0.0109	1.516

CCCC(C)O (centres undefined) + COC(C)(C)C
viscosity [mPa·s], 100 kPa
Conditions	x2 = 0.0811	x2 = 0.1599	x2 = 0.24	x2 = 0.3501	x2 = 0.44	x2 = 0.56	x2 = 0.65	x2 = 0.74	x2 = 0.8499	x2 = 0.94
293.15 K	2.815	1.943	1.344	0.97	0.774	0.621	0.546	0.496	0.436	0.39
298.15 K	2.359	1.633	1.134	0.823	0.666	0.546	0.488	0.441	0.39	0.355
303.15 K	1.994	1.378	0.98	0.705	0.574	0.474	0.424	0.39	0.35	0.321
308.15 K	1.682	1.181	0.868	0.617	0.493	0.407	0.37	0.341	0.313	0.292
313.15 K	1.419	1.001	0.728	0.514	0.407	0.337	0.313	0.296	0.275	0.263
318.15 K	1.208	0.849	0.613	0.412	0.326	0.275	0.255	0.243	0.234	0.231
323.15 K	1.032	0.744	0.524	0.345	0.268	0.226	0.211	0.2	0.197	0.2

CCCC(C)O (centres undefined) + COc1ccccc1
viscosity [mPa·s], 101.33 kPa
Conditions	x2 = 0.1007	x2 = 0.2007	x2 = 0.3001	x2 = 0.4004	x2 = 0.5005	x2 = 0.5991	x2 = 0.6973	x2 = 0.798	x2 = 0.897
303.15 K	2.097	1.59	1.279	1.095	0.998	0.951	0.931	0.924	0.919
313.15 K	1.557	1.234	1.025	0.903	0.845	0.823	0.816	0.811	0.801
323.15 K	1.202	1.014	0.887	0.803	0.753	0.725	0.711	0.704	0.697
